Measurements taken from patent publication US10850135B2, “Antiseptic-tolerant lactic acid bacteria” (AB-BIOTICS, S.A., priority 2016, dated 2020).

Columns and labels:
Test in all cases: Tolerance to antiseptics, disc diffusion assay
[1] = tested on: L. brevis CD2; type: cell-based, Lactobacillus brevis
Experimental: (§1) LAB strains with presumed probiotic properties namely L. brevis, P. acidilactici, P. pentosaceus, S. oralis and S. salivarius were seeded in agar plates with the appropriate nutrient media and incubated in order to obtain isolated colonies. Porphyromonas gingivalis DSM20709 was used as an example of pathogens associated with periodontal pathologies. For each strain the nutritive media and atmospheric conditions used were the most suitable for their proper growth as summarized in TABLE 1.
(§2) For each microorganism, isolated colonies were used for preparing a suspension in Phosphate Buffered Saline 0.1M (PBS) with an optical density equivalent to a Mc Farland standard No. 3. The suspension was used for obtaining a confluent layer of microorganism over the corresponding nutrient medium (TABLE 1) by uniformly seeding the microorganism using a sterile swab.
(§3) Immediately after the inoculation of the strains in the plates, 6 mm of cellulose discs were placed. The discs were impregnated with different conventional antiseptics according to TABLE 2:
(§4) The volume used was the maximum allowed by the disc without spreading on the medium. The solvent was confirmed to not be inhibitory against the bacteria at the amount used. Microorganism were allowed to grow according to the conditions of TABLE 1, and halos of inhibition (in millimeters) measured after 24 h or 48 h according to the corresponding optimal growth conditions for the microorganisms. Results were obtained in triplicate.

[2] = tested on: Pediococcus strains (P. acidilactici CECT8633, P. acidilactici AB134, P. pentosaceus CECT8330); type: cell-based, Pediococcus sp.; conditions: for resistance compared with the other strains tested (disc diffusion): vs L. brevis, Streptococcus sp. and P. gingivalis
Experimental: as §1, §2, §3, §4

[3] = tested on: Porphyromonas gingivalis DSM20709; type: cell-based
Experimental: as §1, §2, §3, §4

[4] = tested on: Streptococcus sp. strains (S. oralis, S. salivarius K12); type: cell-based
Experimental: as §1, §2, §3, §4

[5] = tested on: Pediococcus pentosaceous CECT8330; type: cell-based, Pediococcus pentosaceus; conditions: 6 mm discs impregnated with chlorhexidine; concentration not given
Experimental: as §1, §2, §3
as §4, with “The solvent was confirmed to not be inhibitory against the bacteria at the amount used.” left out, “Results were obtained in triplicate.” left out

[6] = tested on: P. acidilactici AB134; type: cell-based, Pediococcus acidilactici; conditions: 6 mm discs impregnated with chlorhexidine; concentration not given
Experimental: as §1, §2, §3, §4

[7] = tested on: P. acidilactici CECT8633; type: cell-based, Pediococcus acidilactici
Experimental: as §1, §2, §3, §4

[8] = triclosan at different concentrations (0.2%, 0.1%, 0.05%), 5 uL per disc
[9] = highest concentration tested 0.12%, v/v
[10] = 6 mm discs impregnated with chlorhexidine, concentration not given
[11] = any of the concentration tested (0.12%, 0.06%, 0.03%)
[12] = highest concentration tested 1.2 mg/mL, 5 uL per disc

Oc1cc(Cl)ccc1Oc1ccc(Cl)cc1Cl [triclosan, 5-Chloro-2-(2,4-dichlorophenoxy)phenol]
inhibition (halo, disc diffusion) [1, 8]: neither Lactobacillus brevis nor the strains belonging to Pediococcus genus were inhibited | inhibition (halo, disc diffusion) [2, 8]: neither Lactobacillus brevis nor the strains belonging to Pediococcus genus were inhibited | inhibition (halo, disc diffusion) [3, 8]: inhibited | inhibition (halo, disc diffusion) [4, 8]: inhibited

NC(=NCCCCCCN=C(N)/N=C(\N)Nc1ccc(Cl)cc1)/N=C(\N)Nc1ccc(Cl)cc1 [chlorhexidine, (1E)-2-[6-[[amino-[(E)-[amino-(4-chloroanilino)methylidene]-amino]methylidene]amino]hexyl]-1-[amino-(4-chloroanilino)methylidene]guanidine]
inhibition halo [5]: 4 mm | inhibition (halo, disc diffusion) ([1]; concentrations of 0.12% and 0.06%): inhibited | inhibition (halo, disc diffusion) [1, 9]: all the strains were inhibited | inhibition (halo, disc diffusion) [2, 9]: all the strains were inhibited | resistance compared with the other strains tested (disc diffusion) [2]: greatest resistance | inhibition halo [3, 10]: 9 mm | inhibition (halo, disc diffusion) [3, 11]: inhibited at any of the concentration tested | inhibition (halo, disc diffusion) [3, 9]: all the strains were inhibited | inhibition (halo, disc diffusion) [4, 11]: inhibited at any of the concentration tested | inhibition (halo, disc diffusion) [4, 9]: all the strains were inhibited | inhibition halo [6]: 2 mm | inhibition halo [7, 10]: 3 mm

Cc1ccc(C(C)C)c(O)c1 [thymol, 2-isopropyl-5-methylphenol]
growth inhibition (halo, disc diffusion) [3, 12]: inhibited the growth | growth inhibition (halo, disc diffusion) [4, 12]: inhibited the growth

N=C(NCCCCCCNC(=N)NC(=N)Nc1ccc(Cl)cc1)NC(=N)Nc1ccc(Cl)cc1.O=C(O)[C@H](O)[C@@H](O)[C@H](O)[C@H](O)CO.O=C(O)[C@H](O)[C@@H](O)[C@H](O)[C@H](O)CO [chlorhexidine gluconate]
inhibition (halo, disc diffusion) [1, 9]: all the strains were inhibited | inhibition (halo, disc diffusion) [2, 9]: all the strains were inhibited | resistance compared with the other strains tested (disc diffusion) [2]: highest resistance | inhibition (halo, disc diffusion) [3, 9]: all the strains were inhibited | inhibition (halo, disc diffusion) [4, 9]: all the strains were inhibited | inhibition halo compared with S. salivarius K12 and P. gingivalis ([7]; chlorhexidine gluconate 0.12%, 20 μl per 6-mm disc (FIG. 7)): lower inhibition halo
